From patent US20110009335A1, “Anticancer Treatments” (priority 2008, published 2011)
Like-named read-outs stand apart in the source and are kept apart here. Starred links: 1 amine or outer side, 2 acyl side, 3 side chain; linkers in the order of their positions; H or OH if unused. Positions of bridges follow the written chain, without caps; N, C: chain ends. Non-standard residues stand in square brackets, D forms with d. Residues, ends and D or L forms follow the SMILES beside them. *: point of attachment. X1 = CC[C@H](C)[C@@H](N[*:1])[C@@H](O)CC(=O)O[C@H](C(=O)[C@H](C)C(=O)[*:2])C(C)C; NMeY = CN[C@@H](Cc1ccc(O)cc1)C(=O)O; dNMeL = CN[C@H](CC(C)C)C(=O)O; Pyruvoyl = CC(=O)C(=O)*

Key:
[1] = test system: CAKI-1 human renal tumor xenograft; test: Aplidine with temsirolimus, CAKI-1 xenograft in athymic nude mice (Example 4); format: in vivo; settings: for % Inhibition G2: aplidine 0.06 mg/kg/day; for antitumor activity as single agent (monotherapy): temsirolimus 10 and 20 mg/kg/day; for % Inhibition G4: temsirolimus 10 mg/kg/day; for % Inhibition G3: temsirolimus 20 mg/kg/day
Protocol: Female athymic nude mice (Harlan Sprague Dawley, Madison, Wis.) were utilized for all experiments. Mice were implanted with a cell suspension when mice were 6-8 weeks of age. Animals were housed in ventilated rack caging with food and water ad libitum. The mice were acclimated for at least 5 days prior to tumor implantation. […] The tumor model used in this study was CAKI-1, which was implanted in the animals as disclosed in Example 2.
Tumor measurements were determined as disclosed in Example 1. When tumor growth was within an average size range of 140±34 mg (mean±SD), mice were randomized into the treatment and control groups based on tumor weight by using LabCat® In Life module V 8.0 SP1 tumor tracking and measurement software.
The treatment of CAKI-1-tumor-bearing mice was initiated on DPI (Day Post Implantation) 21. Body weights were recorded on treatment days and when tumor sizes were measured. In those days wherein the two drugs were administered the same day, the combination therapy groups were treated by co-administering the two drugs at the same time, with no attempt to sequence the treatments.
(§1) Aplidine was provided in the form of vials of lyophilized aplidine powder which was reconstituted in Cremophor EL/ethanol/water (CEW) 15/15/70 to a concentration of 0.5 mg/ml. The aplidine solution in CEW was diluted in 0.9% Saline to the dosing formulation concentrations, being the final proportion of CEW of 0.18/0.18/0.84.
(§2) Temsirolimus was provided in the form of vials containing a non-aqueous, ethanolic, sterile solution of temsirolimus, 25 mg/ml. […] Then, the solution was further diluted in 0.9% Saline to the dosing formulation concentrations.
(§3) Tumor size measurements were recorded twice weekly from the treatment initiation until the termination of the study. Tumor growth inhibition was assessed comparing the mean tumor weight between the two agents in combination (aplidine and temsirolimus) against temsirolimus mean tumor weight at the different concentrations assayed.
(§4) Mean, standard deviation and standard error of the mean were determined for tumor volume for all animal groups at all assessments. Student's t test was performed on tumor volumes at each measurement day, including at the end of the study, to determine whether there were any statistically significant differences between combination treatment groups and single monotherapy treatment groups.
The definition and criteria for the evaluation of potentiation and the degree of additivity for the combination therapy were the same as those disclosed in Example 1.

[2] = test system: MRI-H-121 human renal tumor xenograft; test: Aplidine with temsirolimus, MRI-H-121 xenograft in athymic nude mice (Example 3); format: in vivo; settings: for % Inhibition G2: aplidine 0.06 mg/kg/day; for antitumor activity as single agent (monotherapy): doses tested, temsirolimus 10 and 20 mg/kg/day
Protocol: Female athymic nude mice (Harlan Sprague Dawley, Madison, Wis.) were utilized for all experiments. Mice were implanted with tumor fragments when mice were 5 weeks of age. Animals were housed in ventilated rack caging, 5 mice per cage, with food and water ad libitum. The mice were acclimated for 1 week prior to being implanted with tumor fragments.
Tumor measurements were determined as disclosed in Example 1. When tumor growth was within an average size range of 95±1.6 mg (mean±SD), mice were randomized into the treatment and control groups based on tumor weight by using LabCat® In Life module V 8.0 SP1 tumor tracking and measurement software.
Body weights were recorded on treatment days and when tumor sizes were measured. In those days wherein the two drugs were administered the same day, the combination therapy groups were treated by co-administering the two drugs at the same time, with no attempt to sequence the treatments.
as §1, §2, §3, §4
The definition and criteria for the evaluation of potentiation and the degree of additivity for the combination therapy were the same as those disclose in Example 1.

[3] = G2: aplidine 0.060 mg/kg/day IP
[4] = CAKI-1 study, Example 4 (temsirolimus)
[5] = NCI-H-460 study, Example 5 (temsirolimus)
[6] = G3: temsirolimus 20 mg/kg/day IP
[7] = G4: temsirolimus 10 mg/kg/day IP

With `CC[C@H](C)[C@H]1NC(=O)[C@@H](NC(=O)[C@@H](CC(C)C)N(C)C(=O)[C@@H]2CCCN2C(=O)C(C)=O)[C@@H](C)OC(=O)[C@H](Cc2ccc(OC)cc2)N(C)C(=O)[C@@H]2CCCN2C(=O)[C@H](CC(C)C)NC(=O)[C@@H](C)C(=O)[C@H](C(C)C)OC(=O)C[C@@H]1O` [aplidine, dehydrodidemnin B] (Pyruvoyl-P[dNMeL]T[X1]LP[NMeY](Me); ester 3-C) the “% T/C on day 21” value [1, 3] was 98.2%, the “% T/C on day 24” value [1, 3] was 94.6% and the “% T/C on day 27” value [1, 3] was 75.6%. For the same compound, the “% T/C on day 30” value [1, 3] was 66.0%, the “% T/C on day 34” value [1, 3] was 81.0% and the “% T/C on day 38” value [1, 3] was 91.1%. The “% T/C on day 42” value [1, 3] was 84.1%, the “% T/C on day 45” value [1, 3] was 80.7% and the “% T/C on day 48” value [1, 3] was 80.1%. For the same compound, the “% T/C on day 56” value [1, 3] was 89.8%, the “% T/C on day 58” value [1, 3] was 89.9% and the “% Inhibition G2” value ([1]; day 21) was 1.8%. For the same compound, the “% Inhibition G2” value ([1]; day 24) was 5.4%, the “% Inhibition G2” value ([1]; day 27) was 24.4% and the “% Inhibition G2” value ([1]; day 30) was 34.0%. The “% Inhibition G2” value ([1]; day 34) was 19.0%, the “% Inhibition G2” value ([1]; day 38) was 8.9% and the “% Inhibition G2” value ([1]; day 42) was 15.9%. The “% Inhibition G2” value ([1]; day 45) was 19.3%, the “% Inhibition G2” value ([1]; day 48) was 19.9% and the “% Inhibition G2” value ([1]; day 56) was 10.2%. The “% Inhibition G2” value ([1]; day 58) was 10.1%, the “antitumor activity as single agent (monotherapy)” value (from here on “antitumor activity”) [1] was “inactive” and the “effect on body weight / toxicity” value (A498 study, Example 2 (sunitinib)) was “did not cause a significant decline in mean body weight”. The “effect on body weight / toxicity” value (CAKI-1 study, Example 1 (sorafenib)) was “did not cause a significant decline in mean body weight”, the “effect on body weight / toxicity” value (CAKI-1 study, Example 2 (sunitinib)) was “did not cause a significant decline in mean body weight” and the “effect on body weight / toxicity” value [4] was “did not cause a significant decline in mean body weight”. For the same compound, the “effect on body weight / toxicity” value (HepG2 study, Example 6 (sorafenib)) was “did not cause a significant decline in mean body weight”, the “effect on body weight / toxicity” value (LOX-IMVI study, Example 7 (sorafenib)) was “did not cause a significant decline in mean body weight” and the “effect on body weight / toxicity” value (MRI-H-121 study, Example 2 (sunitinib)) was “did not cause a significant decline in mean body weight”. For the same compound, the “effect on body weight / toxicity” value [5] was “did not cause a significant decline in mean body weight”, the “% Inhibition G2” value ([2]; day 12) was 1.7% and the “% Inhibition G2” value ([2]; day 15) was −9.0%. For the same compound, the “% Inhibition G2” value ([2]; day 19) was 15.1%, the “% Inhibition G2” value ([2]; day 22) was 6.0% and the “% Inhibition G2” value ([2]; day 27) was 13.7%. The “% Inhibition G2” value ([2]; day 30) was 2.5%, the “% Inhibition G2” value ([2]; day 34) was 3.0% and the “% Inhibition G2” value ([2]; day 37) was 5.0%. The “% Inhibition G2” value ([2]; day 40) was −7.6%, the “% Inhibition G2” value ([2]; day 47) was −1.6% and the “antitumor activity” value [2] was “refractory”.
For `CNC(=O)c1cc(Oc2ccc(NC(=O)Nc3ccc(Cl)c(C(F)(F)F)c3)cc2)ccn1` [sorafenib], the “effect on body weight / toxicity” value (mouse, in vivo) was “did not cause a significant decline in mean body weight”.
For `CO[C@H]1C[C@@H]2CC[C@@H](C)[C@@](O)(O2)C(=O)C(=O)N2CCCC[C@H]2C(=O)O[C@H]([C@H](C)C[C@@H]2CC[C@@H](OC(=O)C(C)(CO)CO)[C@H](OC)C2)CC(=O)[C@H](C)/C=C(\C)[C@@H](O)[C@@H](OC)C(=O)[C@H](C)C[C@H](C)/C=C/C=C/C=C/1C` [temsirolimus], the “% T/C on day 21” value [1, 6] was 98.3%, the “% T/C on day 24” value [1, 6] was 76.7% and the “% T/C on day 27” value [1, 6] was 75.3%. For the same compound, the “% T/C on day 30” value [1, 6] was 47.0%, the “% T/C on day 34” value [1, 6] was 42.2% and the “% T/C on day 38” value [1, 6] was 48.0%. The “% T/C on day 42” value [1, 6] was 51.9%, the “% T/C on day 45” value [1, 6] was 58.9% and the “% T/C on day 48” value [1, 6] was 63.6%. For the same compound, the “% T/C on day 56” value [1, 6] was 75.3%, the “% T/C on day 58” value [1, 6] was 78.8% and the “% T/C on day 21” value [1, 7] was 95.7%. The “% T/C on day 24” value [1, 7] was 69.9%, the “% T/C on day 27” value [1, 7] was 81.3% and the “% T/C on day 30” value [1, 7] was 53.2%. The “% T/C on day 34” value [1, 7] was 50.4%, the “% T/C on day 38” value [1, 7] was 51.1% and the “% T/C on day 42” value [1, 7] was 60.3%. For the same compound, the “% T/C on day 45” value [1, 7] was 66.7%, the “% T/C on day 48” value [1, 7] was 66.2% and the “% T/C on day 56” value [1, 7] was 73.4%. The “% T/C on day 58” value [1, 7] was 76.5%, the “% Inhibition G4” value ([1]; day 21) was 4.3% and the “% Inhibition G4” value ([1]; day 24) was 30.1%. For the same compound, the “% Inhibition G4” value ([1]; day 27) was 18.7%, the “% Inhibition G4” value ([1]; day 30) was 46.8% and the “% Inhibition G4” value ([1]; day 34) was 49.6%. The “% Inhibition G4” value ([1]; day 38) was 48.9%, the “% Inhibition G4” value ([1]; day 42) was 39.7% and the “% Inhibition G4” value ([1]; day 45) was 33.3%. The “% Inhibition G4” value ([1]; day 48) was 33.8%, the “% Inhibition G4” value ([1]; day 56) was 26.6% and the “% Inhibition G4” value ([1]; day 58) was 23.5%. For the same compound, the “% Inhibition G3” value ([1]; day 21) was 1.7%, the “% Inhibition G3” value ([1]; day 24) was 23.3% and the “% Inhibition G3” value ([1]; day 27) was 24.7%. The “% Inhibition G3” value ([1]; day 30) was 53.0%, the “% Inhibition G3” value ([1]; day 34) was 57.8% and the “% Inhibition G3” value ([1]; day 38) was 52.0%. The “% Inhibition G3” value ([1]; day 42) was 48.1%, the “% Inhibition G3” value ([1]; day 45) was 41.1% and the “% Inhibition G3” value ([1]; day 48) was 36.4%. The “% Inhibition G3” value ([1]; day 56) was 24.7%, the “% Inhibition G3” value ([1]; day 58) was 21.2% and the “antitumor activity” value [1] was “did not meet the NCI criteria for activity”. The “effect on body weight / toxicity” value [4] was “did not cause a significant decline in mean body weight”, the “effect on body weight / toxicity” value [5] was “did not cause a significant decline in mean body weight” and the “antitumor activity” value [2] was “very sensitive”. The “% Inhibition G3” value ([2]; temsirolimus 10 mg/kg/day, day 12) was 4.2%, the “% Inhibition G3” value ([2]; temsirolimus 10 mg/kg/day, day 15) was 37.8% and the “% Inhibition G3” value ([2]; temsirolimus 10 mg/kg/day, day 19) was 57.7%. The “% Inhibition G3” value ([2]; temsirolimus 10 mg/kg/day, day 22) was 54.3%, the “% Inhibition G3” value ([2]; temsirolimus 10 mg/kg/day, day 27) was 61.7% and the “% Inhibition G3” value ([2]; temsirolimus 10 mg/kg/day, day 30) was 63.1%. For the same compound, the “% Inhibition G3” value ([2]; temsirolimus 10 mg/kg/day, day 34) was 67.4%, the “% Inhibition G3” value ([2]; temsirolimus 10 mg/kg/day, day 37) was 64.2% and the “% Inhibition G3” value ([2]; temsirolimus 10 mg/kg/day, day 40) was 57.5%. For the same compound, the “% Inhibition G3” value ([2]; temsirolimus 10 mg/kg/day, day 47) was 56.2%, the “% Inhibition G3” value ([2]; temsirolimus 20 mg/kg/day, day 12) was 2.3% and the “% Inhibition G3” value ([2]; temsirolimus 20 mg/kg/day, day 15) was 33.2%. For the same compound, the “% Inhibition G3” value ([2]; temsirolimus 20 mg/kg/day, day 19) was 58.5%, the “% Inhibition G3” value ([2]; temsirolimus 20 mg/kg/day, day 22) was 64.9% and the “% Inhibition G3” value ([2]; temsirolimus 20 mg/kg/day, day 27) was 72.6%. For the same compound, the “% Inhibition G3” value ([2]; temsirolimus 20 mg/kg/day, day 30) was 71.5%, the “% Inhibition G3” value ([2]; temsirolimus 20 mg/kg/day, day 34) was 73.7% and the “% Inhibition G3” value ([2]; temsirolimus 20 mg/kg/day, day 37) was 71.6%. For the same compound, the “% Inhibition G3” value ([2]; temsirolimus 20 mg/kg/day, day 40) was 71.5% and the “% Inhibition G3” value ([2]; temsirolimus 20 mg/kg/day, day 47) was 73.0%.
